# Measurements: BindingDB's records for doi:10.1016/j.ejmech.2011.02.013 (King Saud University, 2011)
# Target: T1, Prostaglandin G/H synthase 1 (Ovis aries, UniProt P05979)
# T1 sequence (P05979 whole entry): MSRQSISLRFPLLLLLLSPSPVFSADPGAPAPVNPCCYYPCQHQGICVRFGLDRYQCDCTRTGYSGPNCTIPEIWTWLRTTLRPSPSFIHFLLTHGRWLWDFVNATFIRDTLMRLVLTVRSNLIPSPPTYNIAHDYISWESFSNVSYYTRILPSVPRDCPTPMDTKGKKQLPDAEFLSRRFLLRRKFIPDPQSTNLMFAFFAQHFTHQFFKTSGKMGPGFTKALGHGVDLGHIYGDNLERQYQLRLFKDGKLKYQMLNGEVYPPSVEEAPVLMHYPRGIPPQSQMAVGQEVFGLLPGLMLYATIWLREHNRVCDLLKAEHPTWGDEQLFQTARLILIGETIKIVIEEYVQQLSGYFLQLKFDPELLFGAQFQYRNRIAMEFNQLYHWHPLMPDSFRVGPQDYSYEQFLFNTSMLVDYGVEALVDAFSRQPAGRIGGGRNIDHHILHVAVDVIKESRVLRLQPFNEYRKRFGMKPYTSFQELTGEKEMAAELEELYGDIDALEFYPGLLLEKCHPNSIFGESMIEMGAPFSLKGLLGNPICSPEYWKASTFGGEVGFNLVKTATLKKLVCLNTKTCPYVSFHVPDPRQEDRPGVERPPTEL
# Assay: Inhibition of ovine COX1 after 5 mins by enzyme immunoassay
row,IC50,SMILES
1,> 100 µM,"COc1cc(-n2c(O)ccc2O)cc(OC)c1OC [1-(3,4,5-Trimethoxyphenyl)pyrrolidine-2,5-dione]"
2,> 100 µM,"Oc1ccc(O)n1-c1cc(Cl)c(Cl)c(Cl)c1 [1-(3,4,5-trichlorophenyl)pyrrolidine-2,5-dione]"
3,> 100 µM,"Oc1c2c(c(O)n1-c1cc(Cl)c(Cl)c(Cl)c1)C1(Cl)C(Cl)=C(Cl)C2(Cl)C1(Cl)Cl [4,5,6,7,8,8-Hexachloro-2-(3,4,5-trichlorophenyl)-3a,4,7,7a-tetrahydro-1H-4,7-methanoisoindole-1,3(2H)-dione]"
4,> 100 µM,"COc1cc(-n2c(O)c3c(c2O)C2(Cl)C(Cl)=C(Cl)C3(Cl)C2(Cl)Cl)cc(OC)c1OC [4,5,6,7,8,8-Hexachloro-2-(3,4,5-trimethoxyphenyl)-3a,4,7,7a-tetrahydro-1H-4,7-methanoisoindole-1,3(2H)-dione]"
5,> 100 µM,"Oc1c2c(c(O)n1-c1cc(Cl)c(Cl)c(Cl)c1)CC=CC2 [cis-2-(3,4,5-Trichlorophenyl)-3a,4,7,7a-tetrahydro-1H-isoindole-1,3(2H)-dione]"
6,> 100 µM,"COc1cc(-n2c(O)c3c(c2O)CC=CC3)cc(OC)c1OC [cis-2-(3,4,5-Trimethoxyphenyl)-3a,4,7,7a-tetrahydro-1H-isoindole-1,3(2H)-dione]"
